The values below come from patent US20080051445A1, “2-Thioxothiazolidin-4-one compounds and compositions as antimicrobial and antimalarial agents targeting enoyl-ACP reductase of type II fatty acid synthesis pathway and other cell growth pathways” (NATIONAL INSTITUTE OF IMMUNOLOGY., priority 2006, published 2008).

In brackets after ≈: the same amount, converted by molar mass.

The target in one assay is PfENR (Plasmodium falciparum, UniProt Q9BH77). Nature of the assay: Inhibition of PfENR (P. falciparum enoyl-ACP reductase, PfFabI), spectrophotometric NADH/crotonoyl-CoA assay. The class given is biochemical. As to the method: PfENR activity was determined in the presence of various concentrations of the inhibitor (25 nM to 750 nM). The percent inhibition was calculated from the residual PfENR activity and was plotted against log compound NAV-117 used. The sigmoidal curve indicates the best fit for the data and IC50 value was calculated from the graph.
PfENR was assayed at two fixed concentrations -100 μM [·] and 200 μM [<] of crotonoyl CoA in presence of 250 nM of compound NAV-117 and 100 μM of NADH. Ki was calculated from the X-intercept. Plot indicates competitive kinetics with respect to crotonoyl CoA.
200 nM PfENR was assayed in presence of 200 μM crotnoyl CoA, 250 nM compound NAV-117 and 50 μM [·] and 100 μM [<] of NADH. Ki of inhibitor was calculated from the. X-intercept. Plot indicates noncompetitive kinetics with respect to NADH.
Spectrophotometric assay of enzyme activity The activity of the Enoyl-ACP reductase was assayed by following rate of the disappearance of NADH using crotonyl-CoA as a substrate. The assay mixture (100 μl) comprised of 100 μM crotonyl-CoA 100 μM NADH and 1% ethanol in […] buffer, pH 7.5. The kinetic parameters were obtained form the double reciprocal plots.
Enzyme inhibition studies The inhibition studies were carried out by preincubating enoyl ACP reductase with the respective compound and various concentrations of the coenzymes at 4° C. for 5 hours. This was warmed to 25° C. and assay was started by the addition of the crotonyl-CoA. The inhibition constant Ki was determined by using the following equation: v=v0/(1+[I]/Ki)
Kinetics of inhibition of PfENR. We deduced the kinetics of inhibition for NAV-117 with respect to crotonoyl CoA as well as NADH. The reaction velocity was measured at a fixed concentration of substrate varying the inhibitor concentration. A graph of the reciprocal of velocity against inhibitor concentration was plotted. […] The IC50 value was calculated by ploting the residual PfENR activity against log of inhibitor concentration and fitting the data points into a sigmoidal curve (FIG. 3). […]

The test system of assay [1] is Chloroquine-sensitive Plasmodium falciparum FCK2 strain. Kind of assay: In vitro whole-cell assay against Plasmodium falciparum in red blood cell cultures. Type of assay: cell-based. As to the method: Compound NAV 117 was assayed for in vitro growth inhibition of Plasmodium falciparum by incubating the cultures with different concentrations of the inhibitors in Me2SO (final concentration, 0.05%). The cultures were checked for growth inhibition by microscopic examination by assessing the parasitemia at every 48 h (●) and 96 h (∘). The average of three data sets has been plotted, and the error bars are shown.
In vitro whole-cell assay against Plasmodium falciparum. Antimalarial activity of NAV-117 was checked towards the Chloroquine-sensitive Plasmodium falciparum FCK2 strain in red blood cell cultures.

Sequence of PfENR (Q9BH77 entry or part of it): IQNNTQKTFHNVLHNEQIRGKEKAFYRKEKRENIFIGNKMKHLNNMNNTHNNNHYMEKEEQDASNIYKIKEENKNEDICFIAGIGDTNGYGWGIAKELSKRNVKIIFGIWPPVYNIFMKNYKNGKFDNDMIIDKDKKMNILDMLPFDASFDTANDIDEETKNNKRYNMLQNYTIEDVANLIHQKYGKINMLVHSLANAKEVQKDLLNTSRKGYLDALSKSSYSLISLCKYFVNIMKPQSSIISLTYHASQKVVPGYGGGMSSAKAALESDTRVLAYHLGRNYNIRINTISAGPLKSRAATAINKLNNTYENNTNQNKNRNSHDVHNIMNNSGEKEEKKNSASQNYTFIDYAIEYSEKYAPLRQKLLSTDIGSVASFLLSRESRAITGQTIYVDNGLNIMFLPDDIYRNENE

Turning to `O=C1/C(=C/c2ccc(O)c(O)c2)SC(=S)N1c1ccccc1` [NAV-117, 5-(3,4-Dihydroxy-benzylidene)-3-phenyl-2-thioxo-thiazolidin-4-one], the “inhibition kinetics with respect to crotonoyl CoA (Dixon plot)” value at PfENR (100 μM and 200 μM crotonoyl CoA, 100 μM NADH (FIG. 4)) is reported as “competitive”. Besides, at PfENR (200 μM crotonoyl CoA, 50 μM and 100 μM NADH (FIG. 5)), the “inhibition kinetics with respect to NADH (Dixon plot)” value is reported as “noncompetitive”. Also, the IC50 is 242 nM on PfENR (inhibitor 25 nM to 750 nM, sigmoidal fit (FIG. 3), read-out: IC50 value (residual PfENR activity against log of inhibitor concentration) (converted)) and roughly 750 nM in assay [1] (Erythrocyte, after 96 h, non-linear regression (FIG. 6), read-out: IC50 value for growth inhibition of the parasite). Further, the MIC in assay [1] (read-out: MIC (minimum inhibitory concentration)) was 2.5 µM (≈ 0.824 µg/mL).
